One experiment addresses T1, scHGF β (Homo sapiens, UniProt P14210, R494E).
T1 construct: the scHGF β-chain (residues Asn^479 to Ser^728) contains the R494E mutation; His-tag (C); made in house; host or cells: insect cells (pAcGP67 vector)
Description: scHGF β activation/Met binding assay (biolayer interferometry). The settings on record: for Kd: peptide titration with 0.5 μM scHGF β, biotinylated Met ECD on sensor, ±stdev of n=3; for binding to scHGF β / activation of Met binding, in words: Met-coated sensor; for AC50: peptide-dependent activation of zHGF β binding to surface immobilized Met ECD, read-out: apparent activation constant (AC50). Here is the method: Met binding assays were carried out utilizing the OctetRed™ biolayer interferometry instrument (ForteBio, Inc.) as reported previously (Landgraf, K. E. et al. (2010) J Biol Chem 285: 40362-72). Biotinylated Met ECD (Sema/PSI-AviTag) was captured on the surface of streptavidin optical sensor tips (SA biosensors, ForteBio, Inc.), and transferred into buffer containing 0.5 μM scHGF β-chain variants in the presence of increasing concentration of indicated peptides. Association and dissociation reactions were monitored to ensure reversible binding between scHGF β and Met. Binding was quantified using the steady-state levels of surface response from the association reaction. Equilibrium constants were derived by least squares fitting of the titration data to a single-site binding equation. Errors reported are ±stdev of n=3 independent experiments.
Based on the finding that the consensus ZAPs contain features consistent with binding and inserting into the activation pocket, several related peptides were synthesized and utilized in a previously established scHGF β activation assay to assess their affinities and ability to active Met binding (Landgraf, K. E. et al. (2010) J Biol Chem 285: 40362-72). Since scHGF β can only weakly interact with the Met Sema-PSI domain compared to the active HGF β form, biolayer interferometry was used in the activation assay to measure the ability of a peptide to directly enhance the binding affinity of scHGF β to a streptavidin sensor surface coated with biotinylated Met (Landgraf, K. E. et al. (2010) J Biol Chem 285: 40362-72). Thus, titration of an activator peptide should result in a significant increase in the surface response signal due to enhanced scHGF β binding to Met.

For another experiment, the target named is scHGF (Homo sapiens, UniProt P14210, R494E). Description: BxPC-3 cell survival assay, peptide titrations in the presence of scHGF. It is filed as cell-based. On the set-up: Full-length recombinant HGF proteins were expressed in 1-liter fermentation cultures of Chinese hamster ovary (CHO) cells; made in house; host or cells: CHO cells (scHGF). The settings on record: for activation of scHGF / cell survival, in words: BxPC-3 cells, peptide plus scHGF. The method, then:
BxPC-3 cells were obtained from ATCC and maintained in cell culture medium (RPMI, 10% FBS (Sigma), 50 U/ml penicillin/50 μg/ml streptomycin, 2 mM glutamine). For the survival assay, cells were plated at 10,000 cells/well in 96 well tissue culture plates (Falcon 353072) in 50 μl assay diluent (RPMI, 0.1% BSA (Sigma) 50 U/ml penicillin/50 μg/ml streptomycin, 2 mM glutamine). Cells were allowed to attach for 1-2 h in a 37° C. CO2 incubator. Human HGF proteins (HGF, scHGF or scHGF plus peptide titrations) were pre-incubated at room temperature in assay diluent. HGF/peptide mixtures were added to cells in microtiter plates in triplicate at 50 μl per well and plates were incubated at 37° C. in a CO2 incubator. Final concentrations of HGF variants were 400 ng/ml and peptide concentrations were titrated accordingly. After 72 h, 25 μl alamar Blue (Serotec, BUF012B) was added to each well and incubate an additional 2 h at 37° C. in a CO2 incubator. Plates were agitated vigorously for 10 min at room temperature, and fluorescence was read at 530-590 nm in a fluorescent plate reader.
Using Bx-PC3 cells, peptide titrations in the presence of scHGF were performed and observed robust activation was seen of scHGF signaling through Met, which reached levels equivalent HGF-induced signaling.
Cellular assays were used to address whether the optimized ZAPtides act as allosteric activators of pro-HGF and stimulate Met signaling in biologically relevant settings of cell survival and migration. […] Importantly, ZAPtides required the presence of scHGF as well as induced […] cell survival that was antagonized by an HGF-blocking anti-Met antibody, each confirming Met pathway selectivity.

Results on nine compounds are retold here after patent publication US8623821B2, “Zymogen activators” (Genentech, Inc., priority 2011, dated 2014).

Entries after “also recorded” stand apart in the source; their conditions may differ. Where a SMILES comes first, the peptide text is derived from it. Bridges are numbered along the chain shown (N, C = ends).

scHGF, sequence (P14210 32-728 R494E): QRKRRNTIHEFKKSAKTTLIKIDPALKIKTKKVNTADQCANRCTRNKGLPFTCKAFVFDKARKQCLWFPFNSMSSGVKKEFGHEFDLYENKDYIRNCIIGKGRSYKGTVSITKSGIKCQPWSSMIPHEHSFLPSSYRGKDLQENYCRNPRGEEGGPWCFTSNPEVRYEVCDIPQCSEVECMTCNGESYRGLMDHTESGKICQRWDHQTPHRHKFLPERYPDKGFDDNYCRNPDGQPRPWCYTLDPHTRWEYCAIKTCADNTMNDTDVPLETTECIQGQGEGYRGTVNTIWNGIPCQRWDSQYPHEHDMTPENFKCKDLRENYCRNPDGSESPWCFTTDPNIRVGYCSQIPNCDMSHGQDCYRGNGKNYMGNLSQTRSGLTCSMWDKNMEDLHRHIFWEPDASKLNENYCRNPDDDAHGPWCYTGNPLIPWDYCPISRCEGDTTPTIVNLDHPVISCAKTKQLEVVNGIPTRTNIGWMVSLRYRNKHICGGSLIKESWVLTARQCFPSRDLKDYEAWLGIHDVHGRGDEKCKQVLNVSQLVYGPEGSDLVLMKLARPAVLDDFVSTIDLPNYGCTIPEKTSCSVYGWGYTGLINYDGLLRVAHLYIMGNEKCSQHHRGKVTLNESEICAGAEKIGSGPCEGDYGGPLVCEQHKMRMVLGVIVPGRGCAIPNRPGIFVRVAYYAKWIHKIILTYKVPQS
T1 sequence (P14210 479-728 R494E): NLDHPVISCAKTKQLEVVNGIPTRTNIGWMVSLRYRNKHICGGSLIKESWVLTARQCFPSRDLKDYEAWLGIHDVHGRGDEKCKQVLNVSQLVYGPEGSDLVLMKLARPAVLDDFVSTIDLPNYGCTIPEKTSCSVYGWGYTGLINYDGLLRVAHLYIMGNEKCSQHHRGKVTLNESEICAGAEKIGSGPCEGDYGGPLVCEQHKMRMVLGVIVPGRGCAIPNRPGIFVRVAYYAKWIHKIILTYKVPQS
T1 sequence (P08581 27-515 partner limits assumed): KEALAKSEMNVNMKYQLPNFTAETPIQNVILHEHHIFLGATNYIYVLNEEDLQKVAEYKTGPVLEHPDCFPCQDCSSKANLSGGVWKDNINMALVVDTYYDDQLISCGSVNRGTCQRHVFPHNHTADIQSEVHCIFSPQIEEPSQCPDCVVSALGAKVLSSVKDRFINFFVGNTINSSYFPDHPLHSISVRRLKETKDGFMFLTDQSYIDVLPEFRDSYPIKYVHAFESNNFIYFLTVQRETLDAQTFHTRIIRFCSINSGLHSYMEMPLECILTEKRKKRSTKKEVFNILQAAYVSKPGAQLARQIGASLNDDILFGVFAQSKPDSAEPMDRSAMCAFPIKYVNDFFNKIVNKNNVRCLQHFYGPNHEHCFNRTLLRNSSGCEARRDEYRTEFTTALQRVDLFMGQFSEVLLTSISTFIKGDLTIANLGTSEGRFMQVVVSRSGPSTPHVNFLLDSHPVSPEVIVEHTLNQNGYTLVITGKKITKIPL

On to `CC[C@H](C)[C@H](N)C(=O)N[C@H](C(=O)NCC(=O)NCC(=O)N[C@@H](CO)C(=O)N1CCC[C@H]1C(=O)N[C@@H](Cc1ccc(O)cc1)C(=O)N[C@@H](Cc1c[nH]c2ccccc12)C(=O)N[C@@H](CCSC)C(=O)N[C@@H](CC(=O)O)C(=O)N[C@@H](CCCNC(=N)N)C(=O)N[C@@H](CCC(=O)O)C(=O)N[C@@H](CCC(=O)O)C(=O)N[C@@H](CO)C(=O)N[C@H](C(N)=O)[C@@H](C)CC)[C@@H](C)CC` [ZAP.03S, I I G G S P Y W M D R E E S I] (H-IIGGSPYWMDREESI-NH2; N-terminus assumed), for which, on scHGF β, the dissociation constant Kd turned out to be 59 ± 30 µM and the “binding to scHGF β / activation of Met binding, in words” value (shortened to “binding to scHGF β / activation”) is “significantly impaired”. With `CC[C@H](C)[C@H](N)C(=O)N[C@H](C(=O)N[C@@H](CC(=O)O)C(=O)NCC(=O)N[C@@H](Cc1ccc(O)cc1)C(=O)N1CCC[C@H]1C(=O)N[C@@H](Cc1c[nH]c2ccccc12)C(=O)N[C@@H](Cc1c[nH]c2ccccc12)C(=O)N[C@@H](CCSC)C(=O)N[C@@H](CC(=O)O)C(=O)N[C@H](C(N)=O)C(C)C)C(C)C` [IVDG.14, I V D G Y P W W M D V] (H-IVDGYPWWMDV-NH2; N-terminus assumed), on scHGF, the “activation of scHGF / cell survival, in words” value is recorded as “partial scHGF signaling activity”. `CC[C@H](C)[C@H](N)C(=O)N[C@H](C(=O)NCC(=O)NCC(=O)N[C@@H](CC(=O)O)C(=O)N1CCC[C@H]1C(=O)N[C@@H](Cc1ccc(O)cc1)C(=O)N[C@@H](Cc1c[nH]c2ccccc12)C(=O)N[C@H](C(=O)N1CCC[C@H]1C(=O)N[C@@H](Cc1c[nH]cn1)C(=O)N1CCC[C@H]1C(=O)NCC(=O)N[C@@H](CC(=O)O)C(=O)N[C@@H](C)C(N)=O)C(C)C)[C@@H](C)CC` [ZAP.01, I I G G D P Y W V P H P G D A] (H-IIGGDPYWVPHPGDA-NH2; N-terminus assumed): binding on scHGF β was characterised by a dissociation constant (Kd) of 6 ± 1 µM. Also, the “EC50 of scHGF activation, order of magnitude in words” value at scHGF (Bx-PC3 cell survival, dose-titrations) is recorded as “micromolar”. In the case of “G I G G C P Y W M D R E E C I (GIGGCPYWMDREECI) [ZAP.03G]”, the “binding to scHGF β / activation” value in the experiment with scHGF β is given as “significantly impairs its binding; also recorded: significantly impaired”. Also, the “activation of scHGF / cell survival, in words” value with scHGF is “dramatically hindered its activity”. Take `CC[C@H](C)[C@H](N)C(=O)N[C@H](C(=O)NCC(=O)NCC(=O)N[C@H]1CSSC[C@@H](C(=O)N[C@H](C(N)=O)[C@@H](C)CC)NC(=O)[C@H](CCC(=O)O)NC(=O)[C@H](CCC(=O)O)NC(=O)[C@H](CCCNC(=N)N)NC(=O)[C@H](CC(=O)O)NC(=O)[C@H](CCSC)NC(=O)[C@H](Cc2c[nH]c3ccccc23)NC(=O)[C@H](Cc2ccc(O)cc2)NC(=O)[C@@H]2CCCN2C1=O)[C@@H](C)CC` [ZAP.03] (H-IIGGCPYWMDREECI-NH2; disulfide 5-14): at scHGF β, the dissociation constant Kd came out at 0.3 ± 0.1 µM and the AC50 is 0.3 µM.

Regarding “I V D D Y P W W M D V (IVDDYPWWMDV) [IVDD.14]”, the “binding to scHGF β / activation” value in the experiment with scHGF β is “no detectable binding”. Regarding “I V G D Y P W W M D V (IVGDYPWWMDV) [IVGD.14]”, the “binding to scHGF β / activation” value with scHGF β is recorded as “no detectable binding”.

As for `CC[C@H](C)[C@H](N)C(=O)N[C@H](C(=O)NCC(=O)NCC(=O)N[C@@H](CC(=O)O)C(=O)N[C@@H](Cc1ccc(O)cc1)C(=O)N[C@@H](Cc1c[nH]c2ccccc12)C(=O)N[C@@H](Cc1c[nH]c2ccccc12)C(=O)N[C@H](C(=O)N1CCC[C@H]1C(=O)N[C@H](C(N)=O)[C@@H](C)CC)C(C)C)C(C)C` [ZAP.09, IVGGDYWWVPI] (H-IVGGDYWWVPI-NH2; N-terminus assumed), at scHGF β, the concentration at half-maximal activity (AC50) came out at 42 µM. For “G V G G Y P W W M D V (GVGGYPWWMDV) [GVGG.14]”, the “binding to scHGF β / activation” value with scHGF β was “lack of activity; also recorded: completely abolished activity”. For the same compound, the “activation of scHGF / cell survival, in words” value with scHGF is given as “no detectable activity”.
